# How the values were obtained:
# Topoisomerase II = target: Topoisomerase II; design: method as in PMID 10051540, PMID 8824299, PMID 9651360; conditions: Topoisomerase II catalytic inhibitor, Fig. 1; cited from earlier work
# [1] = system: 60 human cancer cell lines; test: NCI-60 SRB screen, whole panel; assay type: cell-based; conditions: Homo sapiens, 48 h; One Dose Mean Graph, Conc 1.00E-5 Molar; read-out: Mean Growth Percent
# SNB-19 = test: NCI-60 SRB screen; assay type: cell-based; conditions: Homo sapiens; SNB-19, 10^–5 Molar; read-out: Percent growth inhibition
# Description: (§1) All newly synthesized compounds were selected and screened for anticancer activity against 60 human cancer cell lines representing 9 types of tumors including leukemia, melanoma, lung, colon, CNS, ovarian, renal, prostate, and breast cancers at the National Cancer Institute (NCI), Bethesda, USA. Screening was performed utilizing a single dose (10^−5 M concentration) and cells were incubated for 48 h. The end point was determined using sulforhodamine B (SRB) dye.
# (§2) In this study, all the 16 newly synthesized compounds were submitted to the National Cancer Institute (USA) for anticancer evaluation and were selected and evaluated using 60 different human tumor cell lines representing lung, colon, CNS, ovarian, renal, prostate, breast cancers as well as leukemia and melanoma. A single dose (10^–5 Molar) was used for the initial screening for evaluation of anticancer activity. The 60 human cancer cell lines were provided by the national cancer institute biomedical research campus in Frederick, Maryland.
# (§3) 60 different human cancer cell lines were utilized to screen the newly synthesized compounds for anticancer activity according to the previously reported standard procedure[24]–[26] as follows: • 96 well microtiter plates were used to inoculate the cells at […] ranging from 4000–5000 cells/well depending on the replication time of individual cell lines. Roswell Park Memorial Institute culture medium (RPMI 1640 medium) containing 2 mM L-glutamine and fetal bovine serum was used to grow the cells at 37 °C, 5% CO2, 95% air and 100% relative humidity for 24 h. • Fixation of cells in two plates of each cell line in situ was done using trichloroacetic acid (TCA). This represented the measurement of cell population at the time of drug addition (Tz). • Dimethyl sulfoxide (DMSO) was used to dissolve the synthesized compounds at 400-fold the desired final maximum concentration and frozen prior to use. This frozen concentrate was melted and diluted to twice the final concentration with complete medium containing 50 µg/mL gentamycin at time of drug addition. • The final compound concentration was obtained by adding 100 µL of the synthesized compounds to the appropriate microtiter wells already containing 100 µL followed by incubation of the plates at 37 °C, 5% CO2, 95% air and 100% relative humidity for 48 h. • Fixation of the cells was achieved by gentle addition of 50 µL of cold 50% (w/v) TCA followed by incubation for 60 min at 4 °C. The supernatant was then discarded and the plates are washed 5 times with tap water and air dried. • Sulphorhodamine B (SRB) solution (100 µL) at 0.4% (w/v) in 1% acetic acid was added to each plate followed by incubation for 10 min at room temperature. The unbound dye was then removed by washing five times with 1% acetic acid and plates were air dried. • Dissolution of the bound stain was done using […] trizma base and the absorbance was read at […] wavelength using an automated plate reader. • The percentage growth inhibition was calculated as follows: Ti-Tz/C-Tz×100forconcentrationswhichTi≥Tz Ti-Tz/Tz×100forconcentrationswhichTi<Tz • Time zero (Tz) • Control growth (C) • Test growth in the presence of drug (Ti)
# LOX IMVI = test: NCI-60 SRB screen; assay type: cell-based; conditions: Homo sapiens, 10^–5 Molar, read-out: Percent growth inhibition
# Description: as §1, §2, §3
# SW-620 = test: NCI-60 SRB screen; assay type: cell-based; conditions: Homo sapiens; SW-620, 10^–5 Molar; read-out: Percent growth inhibition
# Description: as §1, §2, §3
# MCF7 = test: NCI-60 SRB screen; assay type: cell-based; conditions: Homo sapiens; MCF7, 10^–5 Molar; read-out: Percent growth inhibition
# Description: as §1, §2, §3
# NCI/ADR-RES = test: NCI-60 SRB screen; assay type: cell-based; conditions: Homo sapiens, 10^–5 Molar, read-out: Percent growth inhibition
# Description: as §1, §2, §3
# UACC-62 = test: NCI-60 SRB screen; assay type: cell-based; conditions: Homo sapiens; UACC-62, 10^–5 Molar; read-out: Percent growth inhibition
# Description: as §1, §2, §3
# HS 578T = test: NCI-60 SRB screen; assay type: cell-based; conditions: Homo sapiens, 10^–5 Molar, read-out: Percent growth inhibition
# Description: as §1, §2, §3
# NCI-H522 = test: NCI-60 SRB screen; assay type: cell-based; conditions: Homo sapiens; NCI-H522, 10^–5 Molar; read-out: Percent growth inhibition
# Description: as §1, §2, §3
# CAKI-1 = test: NCI-60 SRB screen; assay type: cell-based; conditions: Homo sapiens; CAKI-1, 10^–5 Molar; read-out: Percent growth inhibition
# Description: as §1, §2, §3
# MDA-MB-435 = test: NCI-60 SRB screen; assay type: cell-based; conditions: Homo sapiens; MDA-MB-435, 10^–5 Molar; read-out: Percent growth inhibition
# Description: as §1, §2, §3
# UO-31 = test: NCI-60 SRB screen; assay type: cell-based; conditions: Homo sapiens; UO-31, 10^–5 Molar; read-out: Percent growth inhibition
# Description: as §1, §2, §3
# BT-549 = test: NCI-60 SRB screen; assay type: cell-based; conditions: Homo sapiens; BT-549, 10^–5 Molar; read-out: Percent growth inhibition
# Description: as §1, §2, §3
# SK-MEL-2 = test: NCI-60 SRB screen; assay type: cell-based; conditions: Homo sapiens; SK-MEL-2, 10^–5 Molar; read-out: Percent growth inhibition
# Description: as §1, §2, §3
# PC-3 = test: NCI-60 SRB screen; assay type: cell-based; conditions: Homo sapiens; PC-3, 10^–5 Molar; read-out: Percent growth inhibition
# Description: as §1, §2, §3
# SF-539 = test: NCI-60 SRB screen; assay type: cell-based; conditions: Homo sapiens; SF-539, 10^–5 Molar; read-out: Percent growth inhibition
# Description: as §1, §2, §3
# OVCAR-4 = test: NCI-60 SRB screen; assay type: cell-based; conditions: Homo sapiens; OVCAR-4, 10^–5 Molar; read-out: Percent growth inhibition
# Description: as §1, §2, §3
# SNB-75 = test: NCI-60 SRB screen; assay type: cell-based; conditions: Homo sapiens; SNB-75, 10^–5 Molar; read-out: Percent growth inhibition
# Description: as §1, §2, §3
# MDA-MB-231/ATCC = test: NCI-60 SRB screen; assay type: cell-based; conditions: Homo sapiens, 10^–5 Molar, read-out: Percent growth inhibition
# Description: as §1, §2, §3
# leukemia SR cells [2] = test: Apoptosis, Annexin-V-FITC/PI; conditions: 3e at 1.90 µM, 24 h
# topoisomerase IIα = target: T1, topoisomerase IIα (Homo sapiens, UniProt P11388); test: Topoisomerase ELISA kit inhibitory assay; assay type: biochemical; conditions: four concentrations
# T1 construct: purchased MBS2885049
# T1 sequence (P11388 whole entry): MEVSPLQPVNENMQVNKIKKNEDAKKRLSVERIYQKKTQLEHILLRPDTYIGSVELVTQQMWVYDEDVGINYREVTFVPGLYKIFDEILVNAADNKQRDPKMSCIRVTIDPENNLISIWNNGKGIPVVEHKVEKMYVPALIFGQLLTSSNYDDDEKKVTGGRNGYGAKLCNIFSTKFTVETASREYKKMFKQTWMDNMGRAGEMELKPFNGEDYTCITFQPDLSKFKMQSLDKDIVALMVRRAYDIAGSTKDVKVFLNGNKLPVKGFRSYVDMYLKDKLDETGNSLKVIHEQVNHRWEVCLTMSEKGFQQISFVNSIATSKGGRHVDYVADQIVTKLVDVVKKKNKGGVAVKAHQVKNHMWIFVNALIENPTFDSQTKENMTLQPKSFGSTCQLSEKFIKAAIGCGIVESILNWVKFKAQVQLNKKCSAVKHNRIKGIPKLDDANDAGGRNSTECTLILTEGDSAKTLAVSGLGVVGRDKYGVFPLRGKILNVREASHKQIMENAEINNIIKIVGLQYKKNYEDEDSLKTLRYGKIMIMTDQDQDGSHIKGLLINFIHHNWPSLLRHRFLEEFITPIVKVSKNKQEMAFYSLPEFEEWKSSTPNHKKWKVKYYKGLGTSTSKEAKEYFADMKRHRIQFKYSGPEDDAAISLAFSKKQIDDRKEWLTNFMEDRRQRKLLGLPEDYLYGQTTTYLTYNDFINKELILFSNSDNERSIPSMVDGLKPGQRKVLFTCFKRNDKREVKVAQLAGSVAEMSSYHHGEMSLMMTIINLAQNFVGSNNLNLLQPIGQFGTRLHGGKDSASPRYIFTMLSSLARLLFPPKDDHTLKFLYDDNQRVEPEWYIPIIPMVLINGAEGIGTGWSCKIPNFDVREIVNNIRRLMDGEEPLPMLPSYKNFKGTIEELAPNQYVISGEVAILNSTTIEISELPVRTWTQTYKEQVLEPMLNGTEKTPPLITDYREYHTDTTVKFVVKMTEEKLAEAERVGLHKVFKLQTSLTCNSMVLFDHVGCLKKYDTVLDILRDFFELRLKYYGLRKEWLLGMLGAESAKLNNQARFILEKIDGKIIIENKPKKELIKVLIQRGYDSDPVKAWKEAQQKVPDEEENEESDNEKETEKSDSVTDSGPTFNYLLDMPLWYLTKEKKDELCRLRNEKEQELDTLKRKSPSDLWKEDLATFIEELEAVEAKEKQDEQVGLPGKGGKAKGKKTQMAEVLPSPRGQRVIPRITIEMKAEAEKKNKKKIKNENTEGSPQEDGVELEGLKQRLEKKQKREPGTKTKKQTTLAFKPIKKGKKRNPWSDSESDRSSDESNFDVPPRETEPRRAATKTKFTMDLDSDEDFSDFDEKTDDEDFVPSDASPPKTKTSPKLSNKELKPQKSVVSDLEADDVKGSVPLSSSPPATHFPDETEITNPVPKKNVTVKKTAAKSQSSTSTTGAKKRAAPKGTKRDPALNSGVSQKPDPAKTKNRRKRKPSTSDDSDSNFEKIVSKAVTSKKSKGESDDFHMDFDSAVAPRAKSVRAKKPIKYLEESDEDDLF
# Description: Four concentrations were used and IC50 was calculated.
# Compound 3a,b,c,e were evaluated for topoisomerase IIα inhibitory activity utilizing the human DNA topoisomerase ELISA kit (MBS2885049) and following the provided procedure: • Standards and the tested compound were dissolved in sample diluent and tenfold serial dilution was achieved. • Biotin-conjugated antibody and avidin conjugated Horseradish Peroxidase (HRP-avidin) were diluted to tenfolds. • 100 µL of each concentration of standard or test compounds were added to each well and incubated at 37 °C for 1 h. • Removal of the liquid in each well was done. • To each well 100 µL of Biotin-conjugated antibody solution was added followed by incubation for 1 h at 37 °C. • The microtiter plate was allowed to aspirate and washed 3 times. • 100 µL of avidin conjugated Horseradish Peroxidase (HRP-avidin) solution was added to each well and incubatation for 1 h at 37 °C was achieved. • The plate was aspirated and washed 5 times. • Addition of 90 µL of 3,3′,5,5′-tetramethylbenzidine (TMB) substrate to each well followed by plate incubated for 30 min at 37 °C and protection from light was done. • 50 µL stop solution was added.
# leukemia SR cells [3] = test: Cell cycle analysis, PI flow cytometry; assay type: cell-based, human; design: increase of cells at pre-G1 phase vs control: concentration or dose not given beside the values
# Description: The cells were washed twice using Ice-cold phosphate buffer saline (PBS). • Centrifugation was used to collect the cells, then the cells were fixed in 70% (v/v) ethanol, washed with PBS and re-suspended with 0.10 mg/mL RNase. • After that, cells were stained with […] propidium iodide (PI) and evaluated by flow cytometry using FACSCalibur (Becton Dickinson).
structure (smiles),measurement,setting,value
O=C1NC(=S)NC(=O)C1C(=O)Nc1ccccc1 [Merbarone],IC50,Topoisomerase II,20 µM
"CCn1cc(C(=O)O)c(=O)c2cc(F)c(N3CCN(CC(=O)Nc4ccc(S(N)(=O)=O)cc4)C(C)C3)c(F)c21 (stereo not shown) [Compound 5d, 1-Ethyl-6,8-difluoro-7-(3-methyl-4-(2-oxo-2-((4-sulfamoylphenyl)amino)ethyl)piperazin-1-yl)-4-oxo-1,4-dihydroquinoline-3-carboxylic acid]",activity at 10 µM,[1],103%
same,inhibition at 10 µM,SNB-19,3.07%
same,inhibition at 10 µM,LOX IMVI,4.12%
same,inhibition at 10 µM,SW-620,0.37%
same,inhibition at 10 µM,MCF7,5.22%
same,inhibition at 10 µM,NCI/ADR-RES,0.27%
same,inhibition at 10 µM,UACC-62,9.32%
same,inhibition at 10 µM,HS 578T,0.41%
same,inhibition at 10 µM,NCI-H522,6.33%
same,inhibition at 10 µM,CAKI-1,3.88%
same,inhibition at 10 µM,MDA-MB-435,1.15%
same,inhibition at 10 µM,UO-31,12.9%
same,inhibition at 10 µM,BT-549,0.7%
same,inhibition at 10 µM,SK-MEL-2,2.33%
same,inhibition at 10 µM,PC-3,1.64%
same,inhibition at 10 µM,SF-539,0.93%
same,inhibition at 10 µM,OVCAR-4,3.58%
same,inhibition at 10 µM,SNB-75,11.9%
same,inhibition at 10 µM,MDA-MB-231/ATCC,0.31%
same,melting point,,228 to 230 °C
"COc1cccc2c1C(=O)c1c(O)c3c(c(O)c1C2=O)C[C@@](O)(C(=O)CO)C[C@@H]3O[C@H]1C[C@H](N)[C@H](O)[C@H](C)O1 [Doxorubicin, reference compound]",Apoptosis %Early,leukemia SR cells [2],5.88%
same,Apoptosis %Late,leukemia SR cells [2],12.21%
same,Apoptosis %Total,leukemia SR cells [2],22.17%
same,Necrosis,leukemia SR cells [2],4.08%
same,IC50,topoisomerase IIα,0.61 µM
same,increase of cells at pre-G1 phase vs control,leukemia SR cells [3],8.62 folds
same,%G0-G1,"leukemia SR cells [3]; 3e at 1.90 µM, 24 h",25.18%
same,%G2-M,"leukemia SR cells [3]; 3e at 1.90 µM, 24 h",46.06%
same,%Pre-G1,"leukemia SR cells [3]; 3e at 1.90 µM, 24 h",22.17%
same,%S,"leukemia SR cells [3]; 3e at 1.90 µM, 24 h",28.76%
